# According to patent publication US20020168365A1, “Method for modulating granzyme B uptake and for identifying modulators thereof” (priority 2000, published 2002):
# Key:
# [1] = target: cell surface MPR on Jurkat cells; assay: cell-based or functional assay
# [2] = tested on: Jurkat cells; assay: TUNEL and annexin V apoptosis assays with grB and AD; format: cell-based, human; conditions: for percentage of TUNEL positive cells after incubation with grB and AD / percentage of annexin V positive cells after incubation with grB and AD: with 25 mM monosaccharide; for TUNEL positive cells: 3 hr with pretreated grB and AD
# Experimental: (§1) GrB was treated for 1 hr at 37° C. in a phosphate-free (saline) or a high-phosphate (64.5 mM Na2HPO4.7H2O, 21 mM KH2PO4) buffer with calf intestinal alkaline phosphatase (1-10 U), 20 nM of the 37 kDa catalytic subunit of recombinant protein phosphatase-1 (Bagu et al, 1997), or with vehicle control. Cells were then incubated with the treated grB at 4° C. for 30-60 min. For the TUNEL or annexin V assays, cells were then washed twice before incubation at 37° C. with AD.
# (§2) M6P and various other monosaccharides at different concentrations were added to cells for 15 min at 4° C. before the addition of labeled grB, or at room temperature before the addition of grB and AD.
# (§3) GrB was incubated with sCI-MPR at various concentrations in PBS/0.1% BSA for 30 min at 4° C. Subsequently, cells were incubated with grB/sCI-MPR for 30-60 min at 4° C. and washed twice, before analysis of binding, or before the addition of AD for TUNEL and annexin V analysis.
# For the in vitro killing assays, 10 pfu per cell of replication-deficient adenovirus (AD) were added subsequent to grB addition. Analysis of DNA fragmentation by TUNEL analysis has been described previously (Heibein et al., 1999). TUNEL materials (Roche Diagnostics) were used as per the manufacturer's instructions. Phosphatidylserine externalization was measured as previously described (Heibein et al., 1999) using annexin V-FITC (PharMingen). Percent specific TUNEL/annexin V positive cells was calculated as: [(% positive labeling cells with grB and AD-% positive labeling cells without grB and AD)/(100-% positive labeling cells without grB and AD)]×100.
# Cells were resuspended at 10^6 cells/ml in 0.1% BSA/DMEM. Adenovirus (10 PFU/cell) and granzyme B (grB) were added directly to the cell suspension. Cells were incubated at 37° C. for 3 h. For staurosporine killing, cells were resuspended at 10^6 cells/ml in their normal growth medium and staurosporine (2.5 μM) was added directly to the cell suspension. Cells were incubated at 37° C. for 2, 4 and 8 h.
# (§4) DNA fragmentation was monitored by flow cytometric analysis via the terminal deoxynucleotidyltransferase-mediated dUTP-biotin nick end labeling (TUNEL) method. Flow cytometric analysis was performed on a Becton Dickinson FACScanθ flow cytometer equipped with an argon-ion laser with 15 mW of excitation at 488 nm. Emission wavelengths were detected through the FL1 channel. Data were acquired on 10,000 cells per sample with light scatter signals at linear gain and fluorescence signals at logarithmic gain. Percent specific TUNEL positive cells was calculated as follows: [(% positive labeling cells with grB and AD−% positive labeling cells without grB and AD)/(AD−% positive labeling cells without grB and AD)]×100.
# as §4, with “Phosphatidylserine externalization” for “DNA fragmentation”, “monitored using the ApoAlertθ annexin V apoptosis kit (Clontech) according to the protocol provided” for “monitored”, “by” for “by flow cytometric analysis via”, “manufacturer.” for “terminal deoxynucleotidyltransferase-mediated dUTP-biotin nick end labeling (TUNEL) method.”, “Annexin V” for “TUNEL”
# [3] = tested on: Jurkat cells; assay: GrB binding assay (flow cytometry, labeled grB at 4° C.); set-up: species or system human; conditions: for effect on grB binding: monosaccharide with labeled grB, 4° C. (FIG. 3A)
# Experimental: Cells (1-2×10^5) were washed twice and resuspended in buffer before the addition of grB-biotin or -OG in a final volume of 20 μl for a 30-60 min incubation and washed again twice. In the case of grB-biotin, cells were then incubated with streptavidin-cychrome for 20 min and washed twice. Unless otherwise indicated, ˜25 ng grB-biotin or -OG was used to label cells. All steps of the assay were carried out at 4° C. to prevent intracellular uptake of grB. PBS/0.1% BSA buffer was used throughout the procedure. In some cases, results are presented as the relative MFI, which represents the MFI of the grB-labeled population minus the MFI of the unlabeled population.
# as §1, §2, §3
# [4] = tested on: MPR^− and CI-MPR^+ target cells; assay: CTL killing assays (^3H-thymidine release and ^51Cr-release); format: cell-based, murine; conditions: Mus musculus; CTL effectors with targets in the presence of M6P (data not shown); read-out: half-maximal inhibition of target cell DNA fragmentation
# Experimental: The ^51Cr- (lysis) and ^3H-thymidine (DNA fragmentation) release assays have been previously described (Darmon et al., 1996). Target cells (1×10^4 cells/well for the ^51Cr-release assay and 5×10^4 cells/well for the ^3H-thymidine-release assay) were incubated with CTL at various E:T ratios (effector:target) in the presence or absence of blocking murine- (1 μg/ml) or human- (200 ng/ml) anti-Fas mAb. Data from one experiment represent the mean of data from triplicate samples. Typically, spontaneous ^51Cr-release and DNA fragmentation was less than 10% and 5%, respectively. Percent specific lysis and DNA fragmentation was calculated as: [(sample cpm−spontaneous cpm)/(total cpm−spontaneous cpm)]×100.
# [5] = tested on: CI-MPR^+ cells; assay: GrB uptake assay (confocal microscopy, grB-OG at 37° C.); format: cell-based, murine L cells transfected with human CI-MPR; conditions: 20 mM M6P
# Experimental: Cells on coverslips were incubated for 20 min at 37° C. with DMEM/0.1% BSA containing 25 ng grB-OG that was untreated, mock-treated, or alkaline phosphatase-treated as described above. For the M6P inhibition studies, cells were treated with 20 mM M6P in DMEM/0.1% BSA for 10 min at 37° C., before the addition of grB-OG, as above. Cells were then washed twice with PBS/0.1% BSA, fixed with 2% paraformaldehyde in PBS, and allowed to dry briefly before the coverslips were mounted and examined by confocal microscopy. Imaging was performed with a Zeiss Axiovertθ 100M LSM510 laser scan microscope and analyzed using LSM510 software.
# [6] = tested on: MPRs in all cell lines; assay: GrB-OG binding after M6P preincubation (Example 2, FIG. 8); conditions: 20 mM M6P, 37° C., 15 minutes prior to grB-OG
# Experimental: Cells (1×10^5) were washed twice and resuspended in buffer before addition of grB-biotin or grB-OG in a final volume of 20 μl for a 30-60 min incubation and washed again twice. In the case of grB-biotin, cells were then incubated with streptavidin-cychrome for 20 min and washed twice. In order to measure cell surface binding, all steps of the binding assay were carried out at 4° C. to prevent intracellular uptake of grB. 0.1% BSA/PBS buffer was used throughout the procedure. All steps of the grB uptake assay were carried out at 37° C. Flow cytometric analysis was performed on a Becton Dickinson FACScanθ flow cytometer equipped with an argon-ion laser with 15 mW of excitation at 488 nm. Emission wavelengths were detected through the FL1 and FL3 channel for grB-OG and grB-biotin, respectively. Data were acquired on 10,000 cells per sample with light scatter signals at linear gain and fluorescence signals at logarithmic gain. Results are presented as the relative MFI, which represents the MFI of the grB-labeled population minus the MFI of the unlabeled population. M6P at 20 mM was added to cells for 15 min at 37° C. before the addition of labeled grB.
# [7] = tested on: AD containing a β-galactosidase insert; assay: Infection of AD containing a β-galactosidase insert; format: cell-based
# [8] = preincubation of grB with soluble CI-MPR, Jurkat cells (data not shown)
molecule,measurement,setting,value
dephosphorylated human granzyme B (treated with calf intestinal alkaline phosphatase in phosphate-free buffer) (from UniProt P10144 21-247) (enzyme),TUNEL positive Jurkat cells after 3 hr with phosphatase-treated grB and AD,[1],< 5%
human granzyme B purified from the cytolytic granules of YT-Indy cells (from UniProt P10144 21-247) (enzyme),TUNEL positive Jurkat cells after 3 hr with grB (pretreated with alkaline phosphatase in phosphate-containing buffer) and AD,[1],50%
"O=C[C@@H](O)[C@@H](O)[C@H](O)[C@H](O)COP(=O)(O)O [M6P, mannose 6-phosphate]",concentration that markedly reduced in a dose-dependent manner the percentage of TUNEL or annexin V positive cells,"[2]; Jurkat cells, grB and AD, 3 hr",≥ 200 µM
same,binding of grB to Jurkat cells,"[3]; M6P at 20 mM, 4° C.",considerably reduced binding
same,IC50,"[3]; labeled grB, 4° C., flow cytometry, Jurkat cells (FIG. 3A), read-out: half-maximal inhibition of binding of grB",1000 µM
same,IC50,[4],> 25000 µM
same,uptake of grB (grB detected within the cells),[5],essentially no grB could be detected within the cells
same,binding of grB to the MPRs,[6],significantly reduced binding
same,effect on infection of AD containing a β-galactosidase insert,[7],No effect
"O=C[C@@H](O)[C@@H](O)[C@H](O)[C@H](O)CO [D-mannose, reference compound]",percentage of TUNEL positive cells after incubation with grB and AD,"[2]; 3 hr, Jurkat cells",52%
same,percentage of annexin V positive cells after incubation with grB and AD,"[2]; 3 hr, Jurkat cells",32%
same,effect on grB binding,[3],no effect
"O=C[C@H](O)[C@@H](O)[C@H](O)[C@H](O)CO [D-glucose, reference compound]",percentage of TUNEL positive cells after incubation with grB and AD,"[2]; 3 hr, Jurkat cells",66%
same,percentage of annexin V positive cells after incubation with grB and AD,"[2]; 3 hr, Jurkat cells",40%
same,effect on grB binding,[3],no effect
"soluble CI-MPR: Human soluble cation-independent mannose 6-phosphate receptor (Valenzano et al., 1995)",concentration that markedly reduced in a dose-dependent manner grB/AD-mediated apoptosis,[2]; [8],≥ 100 µg/mL
same,concentration that markedly reduced in a dose-dependent manner the cell surface binding of grB,[3]; [8],≥ 100 µg/mL
dephosphorylated grB: grB treated with calf intestinal alkaline phosphatase in phosphate-free buffer,TUNEL positive cells,[2]; Jurkat cells,Less than 5%
"O=C[C@H](O)[C@@H](O)[C@H](O)[C@H](O)COP(=O)(O)O [D-glucose 6-phosphate, reference compound]",percentage of TUNEL positive cells after incubation with grB and AD,"[2]; 3 hr, Jurkat cells",60%
same,percentage of annexin V positive cells after incubation with grB and AD,"[2]; 3 hr, Jurkat cells",41%
same,concentrations at which inhibitory effect on grB binding was evident,"[3]; labeled grB, 4° C.",above 25 mM
same,effect on grB binding,[3],slight inhibitory effect
grB pretreated with alkaline phosphatase in phosphate-containing buffer: control grB treated with phosphatase in a phosphate-containing buffer to inhibit phosphatase activity,TUNEL positive cells,[2]; Jurkat cells,50%
